Experimental data taken from patent US5936065A, “CS-1 peptidomimetics, compositions and methods of using the same” (Cytel Corporation, priority 1995, dated 1999).
Square brackets hold non-standard residues; d marks the D form. Peptide text beside a SMILES is read from it. * marks the point of attachment. NHOctadecyl = CCCCCCCCCCCCCCCCCCN*; Morpholide = C1CN(*)CCO1; Nle = CCCC[C@H](N)C(=O)O; NHDecyl = CCCCCCCCCCN*; PhAc = O=C(Cc1ccccc1)*; ODecyl = CCCCCCCCCCO*; OBn = c1ccc(CO*)cc1; Ahx = NCCCCCC(=O)O; X6 = O=C(O)CO*

Each molecule was assayed against T1, VLA-4 receptor (Homo sapiens, UniProt P05556+P13612) (assay: In vitro binding assay: inhibition of binding of 51Cr-labeled Jurkat cells to solid phase-bound CS-1 compound (SEQ ID NO:1)). Conditions: not given.
T1 construct: inflammatory cells that contain the VLA-4 receptor [Jurkat cells; host or cells: Jurkat cells (human T lymphoblastic line)
T1 sequence (P13612 34-1032): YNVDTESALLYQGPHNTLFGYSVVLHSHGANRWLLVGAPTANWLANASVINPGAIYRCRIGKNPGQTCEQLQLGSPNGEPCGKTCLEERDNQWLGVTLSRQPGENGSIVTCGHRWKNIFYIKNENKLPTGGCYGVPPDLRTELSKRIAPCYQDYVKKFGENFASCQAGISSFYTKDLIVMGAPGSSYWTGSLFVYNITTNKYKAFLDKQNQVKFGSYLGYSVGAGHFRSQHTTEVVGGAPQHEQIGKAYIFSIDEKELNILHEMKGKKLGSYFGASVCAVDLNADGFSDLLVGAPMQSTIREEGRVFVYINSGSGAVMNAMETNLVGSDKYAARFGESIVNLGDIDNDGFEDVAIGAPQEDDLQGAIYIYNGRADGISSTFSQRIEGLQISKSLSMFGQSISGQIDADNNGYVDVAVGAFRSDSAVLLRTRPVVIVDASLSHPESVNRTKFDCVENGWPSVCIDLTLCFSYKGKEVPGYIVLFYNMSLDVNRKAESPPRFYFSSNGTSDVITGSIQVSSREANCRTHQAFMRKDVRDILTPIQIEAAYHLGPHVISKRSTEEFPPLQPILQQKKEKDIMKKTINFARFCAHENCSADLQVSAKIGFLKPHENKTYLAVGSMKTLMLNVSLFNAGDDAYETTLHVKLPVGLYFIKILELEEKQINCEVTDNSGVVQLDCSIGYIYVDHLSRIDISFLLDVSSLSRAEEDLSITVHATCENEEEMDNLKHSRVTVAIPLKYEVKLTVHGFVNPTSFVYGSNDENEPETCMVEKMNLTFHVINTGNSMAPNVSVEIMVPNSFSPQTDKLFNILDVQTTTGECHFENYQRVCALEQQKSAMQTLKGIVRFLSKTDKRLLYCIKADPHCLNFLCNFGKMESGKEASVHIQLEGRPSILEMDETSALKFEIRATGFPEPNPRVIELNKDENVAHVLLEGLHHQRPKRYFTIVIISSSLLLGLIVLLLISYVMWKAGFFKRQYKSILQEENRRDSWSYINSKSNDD
T1 sequence (P05556 21-798): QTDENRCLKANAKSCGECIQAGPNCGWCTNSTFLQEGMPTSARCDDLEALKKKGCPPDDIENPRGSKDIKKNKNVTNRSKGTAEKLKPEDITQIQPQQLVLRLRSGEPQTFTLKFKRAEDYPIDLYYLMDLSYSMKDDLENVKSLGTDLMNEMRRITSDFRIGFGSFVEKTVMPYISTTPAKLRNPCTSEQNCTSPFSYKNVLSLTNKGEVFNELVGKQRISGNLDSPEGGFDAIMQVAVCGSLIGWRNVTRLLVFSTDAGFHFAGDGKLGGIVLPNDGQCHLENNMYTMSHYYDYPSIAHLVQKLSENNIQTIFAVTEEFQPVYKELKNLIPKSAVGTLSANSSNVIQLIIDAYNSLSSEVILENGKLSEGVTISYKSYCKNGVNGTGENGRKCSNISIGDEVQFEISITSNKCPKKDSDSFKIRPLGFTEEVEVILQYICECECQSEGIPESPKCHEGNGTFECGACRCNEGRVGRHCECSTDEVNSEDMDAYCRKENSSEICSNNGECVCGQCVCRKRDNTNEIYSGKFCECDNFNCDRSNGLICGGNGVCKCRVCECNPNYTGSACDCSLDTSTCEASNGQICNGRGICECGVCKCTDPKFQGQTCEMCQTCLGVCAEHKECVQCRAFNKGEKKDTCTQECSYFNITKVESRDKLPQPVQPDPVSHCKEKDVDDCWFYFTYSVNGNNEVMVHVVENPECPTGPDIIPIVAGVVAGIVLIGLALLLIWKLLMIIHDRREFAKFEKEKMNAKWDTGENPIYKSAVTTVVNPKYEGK
Assay type: cell-based
Description: Binding inhibition is measured here as a concentration of compound that inhibits one-half the binding between a standard number of Jurkat cells and a standard amount of CS-1 compound bound to the surface of a microtiter plate well. Those concentrations are conveniently expressed as IC50 values, smaller numbers indicating a lower concentration required to inhibit 50 percent binding and therefore greater potency. Further specifics of this assay are provided hereinafter.
Jurkat cells (ATCC TIB 152), a human T lymphoblastic line, labeled with ^51 chromium were used to assay in vitro binding inhibition provided by various compounds discussed herein.
The plates were prepared as follows: The 25-mer CS-1 compound (SEQ ID NO:1) dissolved at 0.5-1 μg/ml in a buffer of 0.1M NaHCO3 at pH 9.5 that also contained 10 μg/ml of bovine serum albumin (BSA) or a conjugate of the CS-1 compound linked to ovalbumin (CS-1-OVA) dissolved at 1-2.5 μg/ml in the same buffer was used as the substrate. Each well of the microtiter plates was coated with 50 μl of substrate or buffer alone for controls. The wells were permitted to dry out completely and were then rinsed twice with PBS at pH 7.4. Non-specific binding sites of each well were then blocked using 200 μl per well of RPMI/1 percent BSA for two hours at room temperature.
Jurkat cells (3-5×10^6 cells) were placed into a 15 ml Falcon™ round-bottom tube with a cap. The tube was centrifuged, and the extra medium was then removed.
Two hundred microliters of a ^51 Cr labeling solution were added to the centrifuged cells and maintained in contact with the cells for 90-120 minutes in a warm room. […] Longer contact times provide a greater amount of labeling but lower cell viability.
The labeled cells are washed with (i) complete medium, (ii) 1 mM EDTA/PBS and then (iii) RPM1/1 percent BSA free of serum components. The cells are centrifuged after each washing. The cells are finally resuspended in serum-free RPMI/1 percent BSA at a concentration of 1×10^6 viable cells/ml, which provides a concentration that is diluted by one-half in the assay.
Inhibitor compounds are prepared as stock solutions at 20 mg/ml in DMSO in 1.5 ml cryogenic screwcap vials, and were stored at -70° C. Using Flow™ round-bottom or V-bottom microtiter plates, the inhibitor compounds were prepared at twice the assay concentration in RPMI/1 percent BSA at 60 μl/well.
Four initial dilutions were typically used.
The ^51 Cr-labeled cells ([…] at 60 μl/well) were then admixed with the diluted compound solutions. The admixtures were maintained at room temperature (about 22° C.) for 30 minutes.
One hundred microliters of each inhibitor compound/cell admixture were transferred to the substrate-coated wells. This was done in triplicate for each dilution. The resulting plates were incubated for 30 minutes at 37° C. and then washed gently three times with RPMI/1 percent BSA at 200 μl/well. Binding was observed microscopically, particularly after the second wash.
The bound cells were then lysed by the addition of a 0.5 percent solution of sodium dodecylsulfate in water at 100 μl/well. The resulting solutions were then processed for counting and calculation of IC50 values following usual procedures.
The data of Table 1 are normalized to the binding of SEQ ID NO:3. […] Multiple assays for the same compound were averaged.
With `CC(C)C[C@H](NC(=O)Cc1ccccc1)C(=O)N[C@@H](CC(=O)O)C(=O)N[C@@H](Cc1ccccc1)C(=O)N1CCOCC1` [1051.01, N-phenylacetyl-Leu-Asp-Phe-morpholinamide] (PhAc-Leu-Asp-Phe-Morpholide) the “binding inhibition, in words (compared with standard 10-mer of SEQ ID NO:3 or other compounds)” value was “greatest potency”.
For `CCCCCCCCCCCCCCCCCCNC(=O)CCCCCNC(=O)[C@@H]1CCCN1C(=O)[C@H](Cc1ccccc1)NC(=O)[C@H](CC(=O)O)NC(=O)[C@H](CC(C)C)NC(=O)Cc1ccccc1` [1068.01, phenylacetyl-Leu-Asp-Phe-Pro-NH(CH2)5 C(O)NHC18 H37] (PhAc-LDFP[Ahx]-NHOctadecyl), the “binding inhibition, in words (compared with standard 10-mer of SEQ ID NO:3 or other compounds)” value was “binding inhibition similar to that exhibited by the standard 10-mer compound of SEQ ID NO:3”.

Same assay, conditions: binding inhibition potency (IC50) normalized to standard compound of SEQ ID NO:3 = 1; multiple assays averaged; about one-tenth or less assigned zero
`CC(C)CN(CC(=O)Nc1ccccc1)C(=O)CN(CC(=O)O)C(=O)CN(Cc1ccccc1)C(=O)C1CCCC1` [1032.02] was tested, and the “Relative Potency” value was “.63”.
In the case of `CC(C)C[C@H](NC(=O)Cc1ccccc1)C(=O)N[C@@H](CC(=O)O)C(=O)N1C(=O)N(Cc2ccccc2)C(=O)[C@H]1Cc1ccccc1` [1047.07], the “Relative Potency” value is reported as “.38”.
`CC(C)C[C@H](NC(=O)Cc1ccccc1)C(=O)N[C@@H](CC(=O)O)C(=O)N[C@@H](Cc1ccccc1)C(=O)N1CCN(CC(=O)O)CC1` [1111.06, .phi.Ac--Leu--Asp--Phe--4-N(carboxy-methyl)piperazinamide] was tested, and the “Relative Potency” value was 2600.
`CC(C)C[C@H](NC(=O)Cc1ccccc1)C(=O)NC(C(=O)O)C(=O)N[C@@H](Cc1ccccc1)C(=O)N1CCCCC1` (stereo partly drawn) [1026.02] was tested, and the “Relative Potency” value was 0.
In the case of `CC(C)C[C@H](NC(=O)Cc1ccccc1)C(=O)N[C@@H](CP(=O)(O)O)C(=O)N[C@@H](Cc1ccccc1)C(=O)N1CCCCC1` [1026.07], the “Relative Potency” value is reported as 0.
For `CC(C)C[C@H](NC(=O)Cc1ccccc1)C(=O)NC(CC(=O)O)(CC(=O)O)C(=O)N[C@@H](Cc1ccccc1)C(=O)N1CCCCC1` [1026.01], the “Relative Potency” value was 0.
`CC(C)C[C@H](NC(=O)Cc1ccccc1)C(=O)N[C@@H](CC(=O)O)C(=O)N[C@@H](Cc1ccccc1)C(=O)N1CCN(CCOCCO)CC1` [1111.07] was tested, and the “Relative Potency” value was 510.
With `CC(C)C[C@H](NC(=O)Cc1ccccc1)C(=O)N[C@@H](CC(=O)O)C(=O)N[C@@H](Cc1ccccc1)C(=O)N1CCSCC1` [1111.02] the “Relative Potency” value was 450.
In the case of `CC(C)C[C@H](NC(=O)c1ccccc1)C(=O)N[C@@H](CC(=O)O)C(=O)N[C@H](C(=O)N1CCC[C@@H]1C(N)=O)C(C)C` [926.02], the “Relative Potency” value is reported as 9.6.
`CC(C)C[C@H](NC(=O)Cc1ccccc1)C(=O)N[C@@H](CS(N)(=O)=O)C(=O)N[C@@H](Cc1ccccc1)C(=O)N1CCCCC1` [1026.08] was tested, and the “Relative Potency” value was 0.
In the case of `CC(C)C[C@H](NC(=O)Cc1ccccc1)C(=O)N[C@@H](CC(=O)O)C(=O)NC1CCCCN(CC(N)=O)C1=O` (stereo partly drawn) [1057.06], the “Relative Potency” value is reported as 97.
In the case of `CC(C)C[C@H](NC(=O)Cc1ccccc1)C(=O)N[C@@H](CC(=O)O)C(=O)N[C@@H](Cc1ccccc1)C(=O)NCCCO` [1051.05], the “Relative Potency” value is reported as 25.
`CC(C)C[C@@H](CN[C@@H](CC(=O)O)C(=O)N[C@@H](Cc1ccccc1)C(=O)N1CCCCC1)NC(=O)Cc1ccccc1` [1041.01] was tested, and the “Relative Potency” value was 0.
`CC(C)C[C@H](NC(=O)Cc1ccccc1)C(=O)N[C@@H](CC(=O)O)C(=O)NC1Cc2ccccc2N(CCN2CCOCC2)C1=O` (stereo partly drawn) [997.18] was tested, and the “Relative Potency” value was 20.
For `CCCC[C@H](NC(=O)Cc1ccccc1)C(=O)N[C@@H](CC(=O)O)C(=O)N[C@@H](Cc1ccccc1)C(=O)N1CCC[C@@H]1C(N)=O` [1160.02] (PhAc-[Nle]DF[dP]-NH2), the “Relative Potency” value was 49.

Same assay, conditions: prodrug compounds, potency before enzymatic conversion to active form; relative to SEQ ID NO:3 = 1
With `CCOC(=O)C[C@H](NC(=O)[C@H](CC(C)C)NC(=O)Cc1ccccc1)C(=O)N[C@@H](Cc1ccccc1)C(=O)N1CCC[C@@H]1C(N)=O` [1190.01] (PhAc-LD(OEt)F[dP]-NH2) the “Relative Potency” value was 0.
For `CC(C)C[C@H](NC(=O)Cc1ccccc1)C(=O)N[C@@H](CC(=O)OCC(=O)O)C(=O)N[C@@H](Cc1ccccc1)C(=O)N1CCC[C@@H]1C(N)=O` [1067.02] (PhAc-LD(X6)F[dP]-NH2), the “Relative Potency” value was “.81”.
For `CCCCCCCCCCNC(=O)[C@@H]1CCCN1C(=O)[C@H](Cc1ccccc1)NC(=O)[C@H](CC(=O)O)NC(=O)[C@H](CC(C)C)NC(=O)Cc1ccccc1` [1068.04] (PhAc-LDFP-NHDecyl), the “Relative Potency” value was 2.13.
With `CCCCCCCCCCCCCCCCCCNC(=O)CCCCCNC(=O)[C@@H]1CCCN1C(=O)[C@H](Cc1ccccc1)NC(=O)[C@H](CC(=O)O)NC(=O)[C@H](CC(C)C)NC(=O)Cc1ccccc1` [1068.01, phenylacetyl-Leu-Asp-Phe-Pro-NH(CH2)5 C(O)NHC18 H37] (PhAc-LDFP[Ahx]-NHOctadecyl) the “Relative Potency” value was “.91”.
With `CCCCCCCCCCOC(=O)C[C@H](NC(=O)[C@H](CC(C)C)NC(=O)Cc1ccccc1)C(=O)N[C@@H](Cc1ccccc1)C(=O)N1CCC[C@@H]1C(N)=O` [1068.09] (PhAc-LD(ODecyl)F[dP]-NH2) the “Relative Potency” value was 0.
In the case of `CC(C)C[C@H](NC(=O)Cc1ccccc1)C(=O)N[C@@H](CC(=O)OCc1ccccc1)C(=O)N[C@@H](Cc1ccccc1)C(=O)N1CCC[C@@H]1C(N)=O` [1068.07] (PhAc-LD(OBn)F[dP]-NH2), the “Relative Potency” value is reported as 0.

What follows are molecules tested on BALB/c mice (assay: Adoptive transfer delayed type hypersensitivity (oxazolone) in mice). Conditions: versus vehicle alone; implanted pump, 24 hours.
Assay type: in vivo, mouse
Description: An adoptive transfer delayed-type hypersensitivity murine model has been developed using splenic T cells primed to oxazolone. This model is described in Elices et al., Clin. Exp. Rheum., 11(Suppl. 8):577-580 (1993), whose procedures were followed here.
Thus, BALB/c mice were shaved on the belly and painted (50 μl on the belly and 5 μl on each paw) with three percent oxazolone in acetone/olive oil (4:1) at days zero and 1. At day 5, the mice were sacrificed, their spleens removed, and splenic T cells were obtained via nylon wool columns.
Normal saline or saline containing 25×10^6 /animal of the oxazolone-immune T cells were separately injected into naive mice. The mice were then challenged by painting 10 μl of 2 percent oxazolone onto one ear each. All procedures were carried out under sterile conditions and in endotoxin-free buffers.
Prior to challenge or saline injection, the mice were implanted with pumps that subcutaneously administered normal saline, normal saline containing the compound, Compound ID No. 896.52, N-phenylacetyl-Leu-Asp-Phe-D-Pro-NH2, or normal saline containing a compound with a scrambled sequence continually at 6 mg/kg/day for a 24-hour time period. The swelling diameter at the site of challenge or saline injection was measured with a microcaliper 24 hours thereafter.
An expanded study was carried out as described above except that a scrambled compound control was not used as a control for further inhibitor compounds of Table 1 with larger groups of mice. Statistical analyses were carried out versus injection of vehicle alone.
`CC(C)C[C@H](NC(=O)Cc1ccccc1)C(=O)N[C@@H](CC(=O)O)C(=O)N[C@@H](Cc1ccccc1)C(=O)N1CCN(CC(=O)O)CC1` [1111.06, .phi.Ac--Leu--Asp--Phe--4-N(carboxy-methyl)piperazinamide] was tested, and the “Percent Inhibition of post-challenge swelling, expanded study” value was 30%.
For `CC(C)C[C@H](NC(=O)Cc1ccccc1)C(=O)N[C@@H](CC(=O)O)C(=O)N[C@@H](Cc1ccccc1)C(=O)N1CCC(O)CC1` [1070.02, .phi.Ac--Leu--Asp--Phe--4-hydroxpiperidinamide], the “Percent Inhibition of post-challenge swelling, expanded study” value was 29%.

These molecules were tested on New Zealand white rabbits (assay: Treatment of asthmatic rabbits (house dust mite antigen challenge, crossover study)). Conditions: 100 mg/kg nebulizer; FIG. 4A.
Assay type: in vivo, rabbit
Description: Six New Zealand white rabbits were immunized with house dust mite antigen from birth through four months of age. Upon immunization, three rabbits received a single nebulizer administration of the inhibitor compound, Compound ID No. 1051.01, N-phenylacetyl-Leu-Asp-Phe-morpholinamide in aqueous 50 percent ethanol as diluent in an amount of 100 mg/kg, and the other three received diluent alone. All of the rabbits were challenged with house dust mite antigen about 15-30 minutes after administration of the compound, with those animals not receiving compound serving as controls.
Once immunized and challenged, the inflammatory state subsides to a basal level within about three weeks. The three animals used as controls were thereafter used as subjects for receipt of an inhibitor compound, and the three rabbits that initially received the compound can serve as controls.
Such a crossover study was done here. […]
Initial pulmonary function, measured by dynamic compliance (Cdyn) and lung resistance (RL) , and bronchoalveolar lavage (BAL) to obtain an effector cell count, here eosinophils, were conducted prior to administration of the compound or diluent for both portions of this crossover study. […]
With `CC(C)C[C@H](NC(=O)Cc1ccccc1)C(=O)N[C@@H](CC(=O)O)C(=O)N[C@@H](Cc1ccccc1)C(=O)N1CCOCC1` [1051.01, N-phenylacetyl-Leu-Asp-Phe-morpholinamide] (PhAc-Leu-Asp-Phe-Morpholide) the “Cdyn value over six hours after challenge” value was “stayed at about the initial value”.

Same assay, conditions: 100 mg/kg nebulizer; FIG. 4B
`CC(C)C[C@H](NC(=O)Cc1ccccc1)C(=O)N[C@@H](CC(=O)O)C(=O)N[C@@H](Cc1ccccc1)C(=O)N1CCOCC1` [1051.01, N-phenylacetyl-Leu-Asp-Phe-morpholinamide] (PhAc-Leu-Asp-Phe-Morpholide) was tested, and the “RL values over six hours after challenge, percent of initial value” was ≤ 200%.
